Data from ChEMBL document CHEMBL1157744, “Small molecule antagonist of leukocyte function associated antigen-1 (LFA-1): structure-activity relationships leading to the identification of 6-((5S,9R)-9-(4-cyanophenyl)-3-(3,5-dichlorophenyl)-1-methyl-2,4-dioxo-1,3,7-triazaspiro[4.4]nonan-7-yl)nicotinic acid (BMS-688521)” (J Med Chem, 2010).
Activity calls are given as the source filed them. No cut-off for these calls is given here.

Columns and labels:
in vivo [1] = conditions: rat, po, 5 mg/kg
[2] = target: T1, Integrin alpha-2/beta-3 (Homo sapiens) (UniProt P05106+P17301); conditions: 30 uM
in vivo [3] = conditions: dog, iv, 1 mg/kg
Mus musculus [4] = species on record: Mus musculus; conditions: in vivo, po, 5 mg/kg
in vivo [5] = conditions: mouse, iv, 1 mg/kg
in vivo [6] = conditions: rat, iv, 1 mg/kg
[7] = target: T1, Integrin alpha-2/beta-3 (Homo sapiens); conditions: 30 uM; remark: listed apart in the source
in vivo [8] = conditions: mouse, po, 5 mg/kg
in vivo [9] = conditions: mouse, iv, 1 mg/kg; remark: listed apart in the source
in vivo [10] = conditions: rat, po, 5 mg/kg; remark: listed apart in the source
Canis familiaris = species on record: Canis familiaris; conditions: dog, in vivo, po, 5 mg/kg
in vivo [11] = conditions: dog, iv, 1 mg/kg; remark: listed apart in the source
hERG (KCNH2) = hERG (KCNH2) (Homo sapiens, UniProt Q12809); experiment: in vitro
[12] = target: Integrin alpha-M (Homo sapiens) (UniProt P11215); conditions: THP-1, 10 uM
in vitro [13] = conditions: human, serum
in vivo [14] = conditions: dog, plasma, po, 5 mg/kg
in vivo [15] = conditions: mouse, po, 5 mg/kg; remark: listed apart in the source
in vivo [16] = conditions: dog, po, 5 mg/kg
in vivo [17] = conditions: dog, iv, 1 mg/kg; remark: listed apart in the source
in vivo [18] = conditions: rat, iv, 1 mg/kg; remark: listed apart in the source
Mus musculus [19] = species on record: Mus musculus; conditions: BALB/c, 1 mg/kg
in vivo [20] = conditions: mouse, plasma, po, 5 mg/kg
in vivo [21] = conditions: mouse, iv, 1 mg/kg; remark: listed apart in the source
in vivo [22] = conditions: rat, plasma, po, 5 mg/kg
Mus musculus [23] = species on record: Mus musculus; conditions: BALB/c, 3 to 10 mg/kg
in vivo [24] = conditions: rat, iv, 1 mg/kg; remark: listed apart in the source
[25] = target: Integrin alpha-4/beta-1 (Homo sapiens) (UniProt P05556+P13612); conditions: Jurkat, 10 uM
in vivo [26] = conditions: dog, iv, 1 mg/kg; remark: listed apart in the source
in vivo [27] = conditions: dog, po, 5 mg/kg; remark: listed apart in the source
in vivo [28] = conditions: mouse, iv, 1 mg/kg; remark: listed apart in the source
in vitro [29] = conditions: human, Caco-2
in vitro [30] = conditions: Purkinje fibers
Rattus norvegicus = species on record: Rattus norvegicus; conditions: in vivo, po, 5 mg/kg
in vivo [31] = conditions: rat, iv, 1 mg/kg; remark: listed apart in the source

Sequence of hERG (KCNH2) (Q12809 whole entry): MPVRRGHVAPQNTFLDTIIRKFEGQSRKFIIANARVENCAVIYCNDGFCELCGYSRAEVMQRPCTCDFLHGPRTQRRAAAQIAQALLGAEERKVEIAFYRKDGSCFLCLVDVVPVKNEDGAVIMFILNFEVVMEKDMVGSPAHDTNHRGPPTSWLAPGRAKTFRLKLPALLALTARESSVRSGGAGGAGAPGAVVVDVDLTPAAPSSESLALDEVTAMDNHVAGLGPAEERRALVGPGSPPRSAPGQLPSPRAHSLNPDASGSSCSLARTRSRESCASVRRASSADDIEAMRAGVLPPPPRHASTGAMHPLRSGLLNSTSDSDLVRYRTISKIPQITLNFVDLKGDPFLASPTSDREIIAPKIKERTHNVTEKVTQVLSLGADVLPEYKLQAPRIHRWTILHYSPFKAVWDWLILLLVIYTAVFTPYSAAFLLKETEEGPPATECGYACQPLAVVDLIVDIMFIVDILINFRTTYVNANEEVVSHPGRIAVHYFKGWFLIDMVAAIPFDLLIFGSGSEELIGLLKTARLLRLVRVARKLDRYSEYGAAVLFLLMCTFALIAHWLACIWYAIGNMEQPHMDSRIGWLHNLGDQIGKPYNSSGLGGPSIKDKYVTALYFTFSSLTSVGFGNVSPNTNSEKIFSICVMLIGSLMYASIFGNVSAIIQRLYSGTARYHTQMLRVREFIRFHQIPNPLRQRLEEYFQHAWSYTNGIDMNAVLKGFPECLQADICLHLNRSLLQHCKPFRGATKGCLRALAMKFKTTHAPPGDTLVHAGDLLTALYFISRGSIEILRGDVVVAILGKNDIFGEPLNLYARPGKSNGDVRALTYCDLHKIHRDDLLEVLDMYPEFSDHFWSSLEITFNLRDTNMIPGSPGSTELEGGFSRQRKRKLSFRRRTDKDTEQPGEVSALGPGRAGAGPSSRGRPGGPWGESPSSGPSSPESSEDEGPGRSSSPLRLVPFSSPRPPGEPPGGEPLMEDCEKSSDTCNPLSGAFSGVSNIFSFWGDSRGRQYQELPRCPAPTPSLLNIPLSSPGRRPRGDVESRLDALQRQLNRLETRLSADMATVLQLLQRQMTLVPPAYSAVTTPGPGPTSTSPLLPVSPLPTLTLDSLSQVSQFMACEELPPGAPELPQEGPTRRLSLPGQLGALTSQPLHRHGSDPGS

`CN1C(=O)N(c2cc(Cl)cc(Cl)c2)C(=O)[C@]12CN(c1ccc(C(=O)O)cn1)C[C@H]2c1ccc(C#N)cc1` gave a Cmax (in vivo [1]) of 2300 nM, an inhibition [2] of 0% and a half-life (in vivo [3]) of 4.7 h. It also gave a Tmax (Mus musculus [4]) of 1 h, a half-life (in vivo [5]) of 1.6 h and a clearance (in vivo [6]) of 11 mL/min/kg. It also gave an inhibition [7] of 0%, a Cmax (in vivo [8]) of 320 nM and a clearance (in vivo [9]) of 50 mL/min/kg. The bioavailability (in vivo [10]) was 82%, the Tmax (Canis familiaris) was 2.9 h and the MRT (in vivo [11]) was 6.9 h. It also gave an inhibition at 30 µM (hERG (KCNH2)) of 20%, an inhibition [12] of 18% and a fraction unbound (in vitro [13]) of 0.05. It also gave an AUC (in vivo [14]) of 102 µM·h, a bioavailability (in vivo [15]) of 50% and a bioavailability (in vivo [16]) of 48%. For the same molecule, the clearance (in vivo [17]) was 0.5 mL/min/kg, the MRT (in vivo [18]) was 3.5 h and the inhibition (Mus musculus [19]) was “Active”. The AUC (in vivo [20]) was 1.5 µM·h, the MRT (in vivo [21]) was 1.7 h and the AUC (in vivo [22]) was 13 µM·h. For the same molecule, the inhibition (Mus musculus [23]) was “Dose-dependent effect”, the half-life (in vivo [24]) was 3.3 h and the inhibition [25] was 0%. For the same molecule, the Vd (in vivo [26]) was 0.2 L/kg, the Cmax (in vivo [27]) was 22000 nM and the Vd (in vivo [28]) was 5.1 L/kg. For the same molecule, the Papp A→B (in vitro [29]) was 14.8 ×10⁻⁶ cm/s, the inhibition at 30 µM (in vitro [30]) was less than 5% and the Tmax (Rattus norvegicus) was 1.7 h. For the same molecule, the Vd (in vivo [31]) was 2.3 L/kg.
